Measurements from ChEMBL document CHEMBL5247609, “Novel nitric oxide-releasing derivatives of pyranocarbazole as antitumor agents: Design, synthesis, biological evaluation, and nitric oxide release studies” (Eur J Med Chem, 2022).
The source made the active and inactive calls. The rule behind the calls is not given here.

What was measured:
MX1 [1] = assay: Induction of apoptosis in human MX1 cells assessed as viable cells measured at 5 uM after 48 hrs by FITC-Annexin-V and propidium iodide based flow cytometric analysis (reference value: 88.4%); assay type: functional; details: read-out: Activity
MDA-MB-231 [2] = assay: Induction of morphological changes in human MDA-MB-231 cells at 0.5 to 2 uM measured after 24 hrs by bright field inverted microscopic analysis; assay type: functional, cell-based; details: dose 0.5-2 µM
MDA-MB-231 [3] = assay: Induction of cell cycle arrest in human MDA-MB-231 cells assessed as decrease in cyclin B1 expression at 0.5 to 2 uM by Western blotting analysis; assay type: functional, cell-based; details: dose 0.5-2 µM, time 24.0 hrs
MDA-MB-231 [4] = assay: Antitumor activity against human MDA-MB-231 cells xenografted in ig dosed BALBc mouse assessed as inhibition of tumor growth administered every 3 days for 21 days; assay type: functional, organism-based; details: time 21.0 day
MDA-MB-231 [5] = assay: Induction of apoptosis in human MDA-MB-231 cells assessed as early apoptotic cells measured at 5 uM after 48 hrs by FITC-Annexin-V and propidium iodide based flow cytometric analysis (reference value: 2.71%); assay type: functional
MDA-MB-231 [6] = assay: Induction of apoptosis in human MDA-MB-231 cells assessed as necrotic cells measured at 0.5 uM after 48 hrs by FITC-Annexin-V and propidium iodide based flow cytometric analysis (reference value: 0.253 %); assay type: functional
MDA-MB-231 [7] = assay: Antiproliferative activity against human MDA-MB-231 cells assessed as decrease in number of colony formation at 0.25 uM measured after 14 days by crystal violet staining based analysis; assay type: functional, cell-based; details: time 14.0 day
MDA-MB-231 [8] = assay: Inhibition of PI3K/Akt signaling in human MDA-MB-231 cells assessed as decrease in total Akt expression level incubated for 24 hrs by Western blotting analysis; assay type: cell-based
MDA-MB-231 [9] = assay: Induction of apoptosis in human MDA-MB-231 cells assessed as total apoptotic cells measured at 5 uM after 48 hrs by FITC-Annexin-V and propidium iodide based flow cytometric analysis (reference value: 6.2%); assay type: functional
MX1 [10] = assay: Induction of apoptosis in human MX1 cells assessed as viable cells measured at 2 uM after 48 hrs by FITC-Annexin-V and propidium iodide based flow cytometric analysis (reference value: 88.4%); assay type: functional; details: read-out: Activity
MX1 [11] = assay: Induction of cell cycle arrest in human MX1 cells assessed as decrease in accumulation of cells at S phase at 0.5 to 2 uM measured after 24 hrs by propidium iodide staining based FACS calibur flow cytometeric analysis; assay type: functional; details: dose 0.5-2 µM
MDA-MB-231 [12] = assay: Induction of apoptosis in human MDA-MB-231 cells assessed as early apoptotic cells measured at 2 uM after 48 hrs by FITC-Annexin-V and propidium iodide based flow cytometric analysis (reference value: 2.71%); assay type: functional
MX1 [13] = assay: Induction of apoptosis in human MX1 cells assessed as necrotic cells measured at 1 uM after 48 hrs by FITC-Annexin-V and propidium iodide based flow cytometric analysis (reference value: 0.055 %); assay type: functional
MDA-MB-231 [14] = assay: Induction of apoptosis in human MDA-MB-231 cells assessed as early apoptotic cells measured at 1 uM after 48 hrs by FITC-Annexin-V and propidium iodide based flow cytometric analysis (reference value: 2.71%); assay type: functional
MX1 [15] = assay: Induction of cell cycle arrest in human MX1 cells assessed as decrease in cyclin B1 expression at 0.5 to 2 uM by Western blotting analysis; assay type: functional, cell-based; details: dose 0.5-2 µM, time 24.0 hrs
MX1 [16] = assay: Induction of apoptosis in human MX1 cells assessed as downregulation of Bcl-2 by Western blotting analysis; assay type: functional, cell-based; details: dose 0.5-2 µM
MDA-MB-231 [17] = assay: Induction of apoptosis in human MDA-MB-231 cells assessed as increase in cleaved PARP expression at 0.5 to 2 uM by Western blotting analysis; assay type: functional, cell-based; details: dose 0.5-2 µM
MX1 [18] = assay: Inhibition of PI3K/Akt signaling in human MX1 cells assessed as decrease in phosphorylated S6 expression incubated for 24 hrs by Western blotting analysis; assay type: cell-based; details: dose 0.5-5 µM
MDA-MB-231 [19] = assay: Antitumor activity against human MDA-MB-231 cells xenografted in BALBC mouse assessed as inhibition of tumor growth at 75 mg/kg, IG administered every 3 days for 21 days relative to control; assay type: functional; details: MDA-MB-231, po, 504 h, time 21 day, read-out: TGI
MX1 [20] = assay: Induction of apoptosis in human MX1 cells assessed as necrotic cells measured at 0.5 uM after 48 hrs by FITC-Annexin-V and propidium iodide based flow cytometric analysis (reference value: 0.055 %); assay type: functional
MDA-MB-231 [21] = assay: Induction of cell cycle arrest in human MDA-MB-231 cells assessed as increase in CDK6 expression at 0.5 to 2 uM by Western blotting analysis; assay type: functional, cell-based; details: dose 0.5-2 µM, time 24.0 hrs
EMT6 = assay: Antitumor activity against mouse EMT6 cells allografted in BALBC mouse assessed as reduction in tumor progression at 150 mg/kg, IG administered every 3 days for 21 days; assay type: functional, organism-based; details: time 21.0 day
MDA-MB-231 [22] = assay: Antiproliferative activity against human MDA-MB-231 cells assessed as reduction in cell viability by measuring release of nitrite at 100 uM after 180 mins by Griess reagent analysis; assay type: functional; details: 3 h
MDA-MB-231 [23] = assay: Induction of apoptosis in human MDA-MB-231 cells assessed as early apoptotic cells measured at 0.5 uM after 48 hrs by FITC-Annexin-V and propidium iodide based flow cytometric analysis (reference value: 2.71%); assay type: functional
MDA-MB-231 [24] = assay: Induction of apoptosis in human MDA-MB-231 cells assessed as necrotic cells measured at 1 uM after 48 hrs by FITC-Annexin-V and propidium iodide based flow cytometric analysis (reference value: 0.253 %); assay type: functional
MX1 [25] = assay: Induction of apoptosis in human MX1 cells assessed as late apoptotic cells measured at 2 uM after 48 hrs by FITC-Annexin-V and propidium iodide based flow cytometric analysis (reference value: 5.24%); assay type: functional
MDA-MB-231 [26] = assay: Induction of apoptosis in human MDA-MB-231 cells assessed as necrotic cells measured at 5 uM after 48 hrs by FITC-Annexin-V and propidium iodide based flow cytometric analysis (reference value: 0.253 %); assay type: functional
MDA-MB-231 [27] = assay: Induction of cell cycle arrest in human MDA-MB-231 cells assessed as accumulation of cells at G0/G1 phase incubated for 24 hrs by propidium iodide staining based FACS calibur flow cytometeric analysis; assay type: functional; details: dose 0.5-2 µM
MDA-MB-231 [28] = assay: Induction of apoptosis in human MDA-MB-231 cells assessed as viable cells measured at 5 uM after 48 hrs by FITC-Annexin-V and propidium iodide based flow cytometric analysis (reference value: 94.4% ); assay type: functional; details: read-out: Activity
MX1 [29] = assay: Induction of apoptosis in human MX1 cells assessed as viable cells measured at 0.5 uM after 48 hrs by FITC-Annexin-V and propidium iodide based flow cytometric analysis (reference value: 88.4%); assay type: functional; details: read-out: Activity
MX1 [30] = assay: Induction of apoptosis in human MX1 cells assessed as increase in cleaved PARP-1 expression at 0.5 to 2 uM by Western blotting analysis; assay type: functional, cell-based; details: dose 0.5-2 µM
MX1 [31] = assay: Induction of morphological changes in human MX1 cells at 0.5 to 2 uM measured after 24 hrs by bright field inverted microscopic analysis; assay type: functional, cell-based; details: dose 0.5-2 µM
MX1 [32] = assay: Inhibition of PI3K/Akt signaling in human MX1 cells assessed as decrease in total Akt expression level incubated for 24 hrs by Western blotting analysis; assay type: cell-based
MDA-MB-231 [33] = assay: Antitumor activity against human MDA-MB-231 cells xenografted in BALBC mouse assessed as inhibition of tumor growth at 150 mg/kg, IG administered every 3 days for 21 days relative to control; assay type: functional; details: MDA-MB-231, po, 504 h, time 21 day, read-out: TGI

What does the source list for `CC1(C)C=Cc2c(c(/C=C/C(=O)NCCOc3no[n+]([O-])c3S(=O)(=O)c3ccccc3)cc3c2[nH]c2ccc(C(C)(C)C)cc23)O1`?
viability at 5 µM (MX1 [1]): 27.5%; Activity (MDA-MB-231 [2]): Active; Activity (MDA-MB-231 [3]): Active; Activity (MDA-MB-231 [4]): Dose-Dependent Effect; Activity (MDA-MB-231 [5]): 31.2%; Activity (MDA-MB-231 [6]): 0.644%; Activity (MDA-MB-231 [7]): Active; inhibition (MDA-MB-231 [8]): inactive; Activity (MDA-MB-231 [9]): 71.2%; viability at 2 µM (MX1 [10]): 11.9%; Activity (MX1 [11]): Active; Activity (MDA-MB-231 [12]): 10.8%; Activity (MX1 [13]): 0.193%; Activity (MDA-MB-231 [14]): 3.76%; Activity (MX1 [15]): Active; Activity (MX1 [16]): Dose-Dependent Effect; Activity (MDA-MB-231 [17]): Active; inhibition (MX1 [18]): Dose-Dependent Effect; inhibition in vivo at 75 mg/kg (MDA-MB-231 [19]): 30%; Activity (MX1 [20]): 0.202%; Activity (MDA-MB-231 [21]): Active; Activity (EMT6): Active; Nitrite release (MDA-MB-231 [22]): 54.7 µM; Activity (MDA-MB-231 [23]): 3.12%; Activity (MDA-MB-231 [24]): 0.209%; Activity (MX1 [25]): 2.83%; Activity (MDA-MB-231 [26]): 0.867%; Activity (MDA-MB-231 [27]): Dose-Dependent Effect; viability at 5 µM (MDA-MB-231 [28]): 47.1%; viability at 0.5 µM (MX1 [29]): 54.8%; Activity (MX1 [30]): Active; Activity (MX1 [31]): Active; inhibition (MX1 [32]): inactive; inhibition in vivo at 150 mg/kg (MDA-MB-231 [33]): 53.6%
